The values below are quoted from earlier work in patent publication US20230364009A1, “Implantable Medical Device for the Delivery of an Antipsychotic” (Celanese EVA Performance Polymers LLC, priority 2022, published 2023).

Each structure is given as a SMILES string.

For data set [1], the target named is β1 adrenergic receptors (Homo sapiens, UniProt P08588).
In data set [2] the target is dopamine D1 (Homo sapiens, UniProt P21728).
The target in data set [3] is T1, serotonin 5HT1A receptors (Homo sapiens, UniProt P08908).
T1 sequence (P08908 1-422): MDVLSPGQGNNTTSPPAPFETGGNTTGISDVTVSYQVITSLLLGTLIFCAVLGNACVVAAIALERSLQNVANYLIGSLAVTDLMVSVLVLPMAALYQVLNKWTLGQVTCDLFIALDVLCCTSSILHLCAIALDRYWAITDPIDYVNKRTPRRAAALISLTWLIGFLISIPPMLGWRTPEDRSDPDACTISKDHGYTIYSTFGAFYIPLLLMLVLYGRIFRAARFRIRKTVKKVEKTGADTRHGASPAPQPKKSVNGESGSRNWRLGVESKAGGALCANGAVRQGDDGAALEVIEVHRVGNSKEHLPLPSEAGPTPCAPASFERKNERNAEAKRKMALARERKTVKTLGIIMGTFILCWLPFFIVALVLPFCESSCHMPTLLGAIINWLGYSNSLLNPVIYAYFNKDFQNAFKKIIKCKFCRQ

For data set [4], the target named is dopamine Type 2 (D2) receptors (Homo sapiens, UniProt P14416).
The target of data set [5] is T2, serotonin 5HT1c receptors (Homo sapiens, UniProt P28335).
T2 sequence (P28335 33-458): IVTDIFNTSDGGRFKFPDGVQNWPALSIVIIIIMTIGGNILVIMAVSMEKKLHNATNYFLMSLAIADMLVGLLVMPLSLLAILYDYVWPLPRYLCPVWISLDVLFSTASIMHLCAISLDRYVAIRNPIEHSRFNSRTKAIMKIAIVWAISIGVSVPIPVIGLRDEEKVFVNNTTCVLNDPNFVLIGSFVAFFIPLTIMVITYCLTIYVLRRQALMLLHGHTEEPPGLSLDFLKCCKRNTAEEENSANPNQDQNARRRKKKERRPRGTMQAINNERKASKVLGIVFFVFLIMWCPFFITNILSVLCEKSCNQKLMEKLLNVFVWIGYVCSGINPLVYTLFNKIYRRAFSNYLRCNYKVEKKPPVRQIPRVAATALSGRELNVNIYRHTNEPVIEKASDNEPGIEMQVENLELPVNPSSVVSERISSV

The test system of data set [6] is α2 adrenergic receptors.
Data set [7] has as its target serotonin 5HT1D receptors (Homo sapiens, UniProt P28221).
Data set [8] deals with α1 adrenergic receptors.
Data set [9] has as its target β2 adrenergic receptors (Homo sapiens, UniProt P07550).
Data set [10] has as its system haloperidol-sensitive sigma site.

β1 adrenergic receptors, sequence (P08588 whole entry): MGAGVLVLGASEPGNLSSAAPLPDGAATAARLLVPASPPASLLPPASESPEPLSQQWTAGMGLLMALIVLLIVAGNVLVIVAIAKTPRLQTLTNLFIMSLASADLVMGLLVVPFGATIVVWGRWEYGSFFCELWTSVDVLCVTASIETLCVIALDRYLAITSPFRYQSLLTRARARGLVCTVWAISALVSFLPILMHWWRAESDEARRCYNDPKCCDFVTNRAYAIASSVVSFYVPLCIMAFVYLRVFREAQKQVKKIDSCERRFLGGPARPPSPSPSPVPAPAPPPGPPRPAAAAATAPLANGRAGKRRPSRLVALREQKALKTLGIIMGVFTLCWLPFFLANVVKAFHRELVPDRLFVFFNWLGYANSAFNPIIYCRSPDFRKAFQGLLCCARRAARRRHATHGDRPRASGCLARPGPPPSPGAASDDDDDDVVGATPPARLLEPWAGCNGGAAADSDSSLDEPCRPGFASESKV
serotonin 5HT1D receptors, sequence (P28221 whole entry): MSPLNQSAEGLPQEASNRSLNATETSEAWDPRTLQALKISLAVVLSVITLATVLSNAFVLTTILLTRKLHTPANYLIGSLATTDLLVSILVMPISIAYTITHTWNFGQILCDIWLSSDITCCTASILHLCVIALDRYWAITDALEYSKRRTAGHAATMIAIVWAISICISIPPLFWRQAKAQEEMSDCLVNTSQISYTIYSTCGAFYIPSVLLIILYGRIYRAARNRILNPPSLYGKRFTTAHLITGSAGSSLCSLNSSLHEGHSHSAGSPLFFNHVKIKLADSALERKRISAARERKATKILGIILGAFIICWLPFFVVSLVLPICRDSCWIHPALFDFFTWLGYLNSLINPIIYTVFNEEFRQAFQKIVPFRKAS
dopamine D1, sequence (P21728 whole entry): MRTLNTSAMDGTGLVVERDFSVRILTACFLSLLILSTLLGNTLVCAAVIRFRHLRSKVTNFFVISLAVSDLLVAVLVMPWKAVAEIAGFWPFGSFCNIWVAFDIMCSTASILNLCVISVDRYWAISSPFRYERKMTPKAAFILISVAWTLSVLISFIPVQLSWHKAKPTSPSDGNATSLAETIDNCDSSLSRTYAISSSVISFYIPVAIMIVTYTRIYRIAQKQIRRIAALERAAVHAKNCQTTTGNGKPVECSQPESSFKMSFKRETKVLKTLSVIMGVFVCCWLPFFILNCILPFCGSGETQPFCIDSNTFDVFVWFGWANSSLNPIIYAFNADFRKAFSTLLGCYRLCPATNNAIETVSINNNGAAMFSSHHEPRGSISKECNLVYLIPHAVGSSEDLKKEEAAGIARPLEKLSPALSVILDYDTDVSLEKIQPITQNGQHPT
dopamine Type 2 (D2) receptors, sequence (P14416 whole entry): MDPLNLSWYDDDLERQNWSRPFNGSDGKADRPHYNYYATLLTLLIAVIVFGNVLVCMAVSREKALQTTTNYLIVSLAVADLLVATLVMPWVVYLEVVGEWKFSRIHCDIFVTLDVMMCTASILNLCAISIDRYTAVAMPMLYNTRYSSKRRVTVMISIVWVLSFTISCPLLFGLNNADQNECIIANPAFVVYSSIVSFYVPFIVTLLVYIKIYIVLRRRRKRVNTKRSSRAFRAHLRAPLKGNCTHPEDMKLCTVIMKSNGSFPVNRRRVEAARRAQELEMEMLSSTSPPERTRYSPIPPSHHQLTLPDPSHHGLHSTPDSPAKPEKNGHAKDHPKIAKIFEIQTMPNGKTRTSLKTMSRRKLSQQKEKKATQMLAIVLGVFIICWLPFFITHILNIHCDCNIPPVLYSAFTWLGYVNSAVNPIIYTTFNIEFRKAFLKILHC
β2 adrenergic receptors, sequence (P07550 whole entry): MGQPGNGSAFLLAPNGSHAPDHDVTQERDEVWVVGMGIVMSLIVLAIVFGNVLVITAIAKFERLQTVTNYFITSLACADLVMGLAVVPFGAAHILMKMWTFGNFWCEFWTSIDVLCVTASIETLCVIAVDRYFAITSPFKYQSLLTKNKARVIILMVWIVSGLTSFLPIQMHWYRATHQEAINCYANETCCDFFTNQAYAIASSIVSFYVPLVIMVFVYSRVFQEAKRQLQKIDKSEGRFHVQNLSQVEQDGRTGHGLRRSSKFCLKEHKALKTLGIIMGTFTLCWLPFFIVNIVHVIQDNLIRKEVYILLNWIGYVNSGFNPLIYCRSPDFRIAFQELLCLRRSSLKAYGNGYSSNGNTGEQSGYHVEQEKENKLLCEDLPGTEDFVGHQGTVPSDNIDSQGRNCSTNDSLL

As for `Cc1nc2n(c(=O)c1CCN1CCC(c3noc4cc(F)ccc34)CC1)CCCC2` [Risperidone, risperidone], the affinity result is “no affinity” in [1]; “weak affinity” in data set [2]; “low to moderate affinity” in data set [3]; “high affinity” in data set [4]; “low to moderate affinity” in data set [5]; “high affinity” in data set [6]. Besides, the affinity result is given as “low to moderate affinity” in data set [7], “high affinity” in [8], “no affinity” in data set [9] and “weak affinity” in data set [10].
